Results taken from EP0579806B1, “MEDICAMENT FOR THE TREATMENT AND/OR PROPHYLAXIS OF FOLATE METABOLISM DISORDERS” (Kragler, Peter, priority 1992, dated 1993).

Assay: Red blood count and megakaryocyte function before and after therapy in HIV-positive patients
Type: in vivo, Mensch
Conditions: patients pretreated with a chain terminator, before therapy
Source text: Folgende Laborparameter wurden vor und nach der Therapie an 23 HIV-positiven Patienten mit verschiedener klinischer Symptomatik bestimmt: • 1. Rotes Blutbild und Megakaryozytenfunktion • 2. Weißes Blutbild und Lymphozytensubpopulation • 3. Lymphozytenstimulation • 4. Proteine • a) Gesamteiweiß • b) Elektrophorese • c) Immunelektrophorese • d) zirkulierende Immunkomplexe (CIC) • 5. B12-Gehalt • a) Serum pg/ml • b) Erythrozyten pg/ml Zellen • c) mononukleäre Zellen pg/ml Zellen • 6. Folat-Gehalt • a) Serum ng/ml • b) Erythrozyten ng/ml Zellen • c) mononukleäre Zellen ng/ml Zellen • 7. HIV (Elisa) in Titerstufen • 8. HIV - Westernblot (P24-core, P55-gag, gP41-env, gP120-env, gP160-env) mit Bewertung der Banden von + bis ++++ • 9. β2-Mikroglobulin korreliert • a) mit der Aktivität der NK-Zellen (ADCC = antibody dependent cellmediated cytotoxicity) • b) mit der Aktivität der CD8- NK-Zellen • 10. Neopterin Zwischenprodukt der Reaktion GPT (Guanosintriphosphat) --> Tetrahydrobiopterin (Hydroxylierung von Phenylalanin, Tyrosin und Tryptophan) Die Bedeutung von Neopterin ist zur Zeit noch Gegenstand wissenschaftlicher Untersuchungen. • 11. Lysozym (Muramidase) Messung der Granulozytenaktivität • 12. Serologie sexuell übertragbarer Krankheiten (STD) […]

Cc1cn([C@H]2C[C@H](N=[N+]=[N-])[C@@H](CO)O2)c(=O)[nH]c1=O [AZT, Azidothymidin]
makrozytäre, hyperchrome Anämie (MCV, Hbe erhöht): noch ausgeprägter
